Like-named read-outs stand apart in the source and are kept apart here.
Key:
[1] = target: T1, DRB1*0405 (DR4w15) (Homo sapiens, UniProt P01903+P01911, A100R/A169T/D86S/F76Y/I96L/K127E/L162R/M171V/N62H/P40V/Q125Y/R42H/S133A/S149N/S66Y/V115G/V209L/W38E); experiment: biochemical; assay type: binding
T1 construct: Epstein-Barr virus (EBV) transformed homozygous cell lines were used as sources; endogenous in cells; host or cells: KT3 (EBV-transformed homozygous B cell line)

[2] = target: T2, DRB1*0901 (DR9) (Homo sapiens, UniProt P01903+P01911, A100R/A103E/D57H/D86V/F55Y/F60I/F76Y/I96F/K127E/L162R/M171V/P40D/Q125H/Q99R/R33Q/R42F/S133A/S66N/T210M/V115G/W38K/Y107V/Y59G/Y89S); experiment: biochemical; assay type: binding; settings: Binding Capacity (IC 50% nM) Other Alleles DR9
T2 construct: Epstein-Barr virus (EBV) transformed homozygous cell lines were used as sources; endogenous in cells

[3] = target: T3, DRB1*1501 (DR2w2b) (Homo sapiens, UniProt P01903+P01911); experiment: biochemical; assay type: binding
T3 construct: expressed in transfected cells; host or cells: transfected fibroblasts L466.1

[4] = target: T4, DRB1*1302 (DR6w19) (Homo sapiens, UniProt P01903+P01911, A100E/A169T/K41T/L162R/M171V/P40S/Q125H/Q178H/Q39Y/Q99D/R42S/S66N/T262R/V115G/W38E/Y61H); experiment: biochemical; assay type: binding; settings: Binding Capacity (IC 50% nM) Other Alleles DR6w19
T4 construct: Epstein-Barr virus (EBV) transformed homozygous cell lines were used as sources; the source of Class II molecules the EBV transformed homozygous cell line H0301; endogenous in cells; host or cells: H0301 (EBV-transformed homozygous B cell line)

[5] = target: T5, DRB1*0701 (DR7) (Homo sapiens, UniProt P01903+P01911, A100R/A102G/A103Q/D57E/D86V/E43K/F76Y/K127E/L162R/M171V/P40G/Q125H/Q99D/R33Q/R42Y/R54Q/S133A/S66F/T210M/V115G/Y107V/Y59L/Y89S); experiment: biochemical; assay type: binding
T5 construct: Epstein-Barr virus (EBV) transformed homozygous cell lines were used as sources; endogenous in cells; host or cells: PITOUT (EBV-transformed homozygous B cell line)

[6] = target: T6, DRB1*1101 (DR5w11) (Homo sapiens, UniProt P01903+P01911, A100R/A169T/A87E/I96F/K41T/L162R/M171V/P40S/Q125H/Q178H/Q39Y/Q99D/R42S/S66Y/T262R/V115G/W38E); experiment: biochemical; assay type: binding
T6 construct: Epstein-Barr virus (EBV) transformed homozygous cell lines were used as sources; endogenous in cells; host or cells: SWEIG (EBV-transformed homozygous B cell line)
T6 sequence (P01903 26-254, other chains not shown): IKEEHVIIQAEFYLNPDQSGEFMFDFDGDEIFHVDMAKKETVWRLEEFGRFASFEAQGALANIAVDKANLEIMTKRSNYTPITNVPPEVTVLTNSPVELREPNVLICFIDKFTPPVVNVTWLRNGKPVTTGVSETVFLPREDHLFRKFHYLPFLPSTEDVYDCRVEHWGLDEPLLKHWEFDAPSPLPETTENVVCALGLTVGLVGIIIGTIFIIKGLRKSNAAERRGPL

[7] = target: T7, DRB5*0101 (DR2w2a) (Homo sapiens, UniProt P01903+Q30154); experiment: biochemical; assay type: binding
T7 construct: Epstein-Barr virus (EBV) transformed homozygous cell lines were used as sources; endogenous in cells; host or cells: GM3107 (EBV-transformed homozygous B cell line)

[8] = target: T8, DRB1*0401 (DR4w4) (Homo sapiens, UniProt P01903+P01911, A100K/A169T/F76Y/I96L/K127E/L162R/M171V/N62H/P40V/Q125Y/R42H/S133A/S149N/S66Y/V115G/V209L/W38E); experiment: biochemical; assay type: binding
T8 construct: Epstein-Barr virus (EBV) transformed homozygous cell lines were used as sources; endogenous in cells; host or cells: PREISS (EBV-transformed homozygous B cell line)

[9] = target: T9, DRB1*1201 (DR5w12) (Homo sapiens, UniProt P01903+P01911, A100R/A169T/D57E/D86V/F55L/H45Y/K41T/L162R/M171V/P40S/Q125H/Q178H/Q39Y/Q99D/R42G/S66L/T262R/V114A/V67L/W38E/Y59H/Y61H/Y89S); experiment: biochemical; assay type: binding
T9 construct: Epstein-Barr virus (EBV) transformed homozygous cell lines were used as sources; endogenous in cells; host or cells: Herluf (EBV-transformed homozygous B cell line)

[10] = target: T10, DRB1*0802 (DR8w2) (Homo sapiens, UniProt P01903+P01911, A100R/A103L/A169T/F76Y/H45Y/I96F/K41T/L162R/M171V/P40S/Q125H/Q178H/Q39Y/Q99D/R218S/R42G/S66Y/V115G/W38E); experiment: biochemical; assay type: binding
T10 construct: Epstein-Barr virus (EBV) transformed homozygous cell lines were used as sources; endogenous in cells; host or cells: OLL (EBV-transformed homozygous B cell line)

[11] = target: T11, DRB1*0301 (DR3w17) (Homo sapiens, UniProt P01903+P01911, A100K/A102G/A103R/A169T/F55Y/I96L/K41T/L162R/M171V/P40S/Q125H/Q178H/Q39Y/R42S/S66N/T106N/T262R/W38E/Y61H); settings: read-out: Binding Capacity (IC 50% nM) Other Alleles DR3
[12] = target: T12, DRB1*0101 (DR1) (Homo sapiens, UniProt P01903+P01911, A100R/D57E/F55L/F60I/F76Y/I96L/L162R/M171V/P40L/Q125E/R42F/V115G/Y59C); experiment: biochemical; assay type: binding; settings: Binding Capacity (IC 50% nM) DR1,4,7 DRB1
T12 construct: Epstein-Barr virus (EBV) transformed homozygous cell lines were used as sources; endogenous in cells; host or cells: LG2 (EBV-transformed homozygous B cell line)

[13] = target: T11, DRB1*0301 (DR3w17); experiment: biochemical
[14] = Binding Capacity (IC 50% nM) Other Alleles DR2w2b
[15] = Binding Capacity (IC 50% nM) DR1,4,7 DR7
[16] = read-out: Binding Capacity (IC 50% nM) Other Alleles DR5w11
[17] = Binding Capacity (IC 50% nM) Other Alleles DR2w2a
[18] = Binding Capacity (IC 50% nM) DR1,4,7 DR4w4
[19] = Binding Capacity (IC 50% nM) Other Alleles DR8w2
[20] = read-out: Binding Capacity (IC 50% nM) Other Alleles DR4w15
[21] = Binding Capacity (IC50% nM) DR5w11
[22] = Binding Capacity (IC50% nM) DR3
[23] = Binding Capacity (IC50% nM) DR4w4
[24] = Binding Capacity (IC50% nM) DR5w12
[25] = read-out: Binding Capacity (IC 50% nM) Other Alleles DR5w12
[26] = read-out: Binding Capacity (IC 50% nM) Other Alleles DR8w2
[27] = Binding Capacity (IC50% nM) DR2w2b
[28] = read-out: Binding Capacity (IC 50% nM) Other Alleles DR2w2b

Compound | IC50 [2] [nM] | IC50 [3, 14] [nM] | IC50 [4] [nM] | IC50 [5, 15] [nM] | IC50 [6, 16] [nM] | IC50 [7, 17] [nM] | IC50 [8, 18] [nM] | IC50 [10, 19] [nM] | IC50 [11] [nM] | IC50 [12] [nM] | IC50 [1, 20] [nM] | IC50 [6, 21] [nM] | IC50 [13, 22] [nM] | IC50 [8, 23] [nM] | IC50 [9, 24] [nM] | IC50 [9, 25] [nM] | IC50 [10, 26] [nM] | IC50 [3, 27] [nM] | IC50 [3, 28] [nM] | other results
CC[C@H](C)[C@H](NC(=O)[C@H](CC(C)C)NC(=O)[C@H](CCCCN)NC(=O)[C@H](CCSC)NC(=O)[C@H](C)NC(=O)[C@H](CC(C)C)NC(=O)[C@@H]1CCCN1C(=O)[C@@H](NC(=O)[C@H](C)NC(=O)[C@H](Cc1c[nH]cn1)NC(=O)[C@H](CC(N)=O)NC(=O)[C@@H](NC(=O)[C@H](Cc1c[nH]c2ccccc12)NC(=O)[C@H](CC(N)=O)NC(=O)[C@@H](N)Cc1c[nH]cn1)C(C)C)C(C)C)C(=O)O [Peptide 1188.34] | < 1000 | < 1000 | < 1000 | < 1000 | > 1000 | < 1000 | < 1000 | < 1000 | > 1000 | < 1000 | – | – | – | – | – | – | – | – | – | IC50 ([1]; Binding Capacity (IC 50% nM) Other Alleles DR4w15): < 1000 nM; IC50 ([9]; Binding Capacity (IC 50% nM) Other Alleles DR5w12): < 1000 nM
CC[C@H](C)[C@H](NC(=O)[C@H](CO)NC(=O)[C@H](CO)NC(=O)[C@H](CC(N)=O)NC(=O)[C@@H](NC(=O)[C@@H](NC(=O)[C@H](CC(N)=O)NC(=O)[C@@H](N)Cc1ccccc1)C(C)C)C(C)C)C(=O)NCC(=O)N[C@@H](CC(C)C)C(=O)N[C@H](C(=O)N[C@@H](CCSC)C(=O)N[C@H](C(=O)N[C@@H](CC(C)C)C(=O)N[C@@H](CO)C(=O)O)C(C)C)[C@@H](C)CC [Peptide 27.384] | – | – | – | – | > 1000 | – | – | – | > 1000 | – | > 1000 | > 10000 | > 10000 | > 10000 | > 10000 | > 1000 | > 1000 | – | – | IC50 ([1]; Binding Capacity (IC50% nM) DR4w15): > 10000 nM; IC50 ([8]; read-out: Binding Capacity (IC 50% nM) DR1,4,7 DR4w4): > 1000 nM; IC50 ([10]; Binding Capacity (IC50% nM) DR8w2): > 10000 nM
CC(C)[C@H](NC(=O)[C@H](Cc1ccccc1)NC(=O)[C@@H](N)CCCCN)C(=O)N[C@H](C(=O)N1CCC[C@H]1C(=O)NCC(=O)N[C@@H](C)C(=O)N[C@@H](C)C(=O)N[C@H](C(=O)N1CCC[C@H]1C(=O)N[C@@H](Cc1ccc(O)cc1)C(=O)N[C@@H](C)C(=O)NCC(=O)N[C@@H](CCC(=O)O)C(=O)N1CCC[C@H]1C(=O)O)[C@@H](C)O)C(C)C [Peptide F107.17] | < 1000 | – | < 1000 | – | > 1000 | – | < 1000 | – | > 1000 | < 1000 | > 1000 | > 10000 | – | – | – | > 1000 | > 1000 | > 10000 | > 1000 | IC50 ([5]; Binding Capacity (IC50% nM) DR7): > 10000 nM; IC50 ([5]; read-out: Binding Capacity (IC 50% nM) DR1,4,7 DR7): > 1000 nM; IC50 ([7]; Binding Capacity (IC50% nM) DR2w2a): > 10000 nM; IC50 ([7]; read-out: Binding Capacity (IC 50% nM) Other Alleles DR2w2a): > 1000 nM
CSCC[C@H](NC(=O)[C@H](C)NC(=O)[C@H](CC(C)C)NC(=O)[C@@H]1CCCN1C(=O)[C@@H](NC(=O)[C@H](C)NC(=O)[C@H](Cc1c[nH]cn1)NC(=O)[C@H](CC(N)=O)NC(=O)[C@@H](NC(=O)[C@H](Cc1c[nH]c2ccccc12)NC(=O)[C@H](CC(N)=O)NC(=O)[C@H](Cc1c[nH]cn1)NC(=O)[C@@H](N)CCCNC(=N)N)C(C)C)C(C)C)C(=O)N[C@@H](CCCCN)C(=O)N[C@@H](CC(C)C)C(=O)O [Peptide 1188.45] | < 1000 | < 1000 | < 1000 | < 1000 | > 1000 | < 1000 | < 1000 | < 1000 | – | < 1000 | > 1000 | – | – | 9 | > 10000 | > 1000 | – | – | – | IC50 ([13]; Binding Capacity (IC 50% nM) Other Alleles DR3): < 1000 nM
CC(C)C[C@H](NC(=O)CN)C(=O)N[C@@H](C)C(=O)N[C@@H](Cc1ccc(O)cc1)C(=O)N[C@@H](CCCCN)C(=O)N[C@@H](Cc1ccccc1)C(=O)N[C@H](C(=O)N[C@H](C(=O)N1CCC[C@H]1C(=O)NCC(=O)N[C@@H](C)C(=O)N[C@@H](C)C(=O)N[C@H](C(=O)N1CCC[C@H]1C(=O)N[C@@H](Cc1ccc(O)cc1)C(=O)O)[C@@H](C)O)C(C)C)C(C)C [Peptide 1188.32] | – | – | – | – | – | – | – | – | > 1000 | – | – | – | > 10000 | – | – | – | – | > 10000 | > 1000 | –
CC[C@H](C)[C@H](NC(=O)[C@H](C)NC(=O)[C@H](CC(C)C)NC(=O)[C@H](CCCCN)NC(=O)[C@H](CCCNC(=N)N)NC(=O)[C@@H](N)CCSC)C(=O)N[C@@H](CC(C)C)C(=O)N[C@@H](CO)C(=O)N[C@H](C(=O)N[C@@H](CO)C(=O)N[C@@H](CO)C(=O)N[C@@H](Cc1ccccc1)C(=O)N[C@@H](CC(C)C)C(=O)N[C@@H](Cc1ccccc1)C(=O)N[C@H](C(=O)O)C(C)C)C(C)C [Peptide 27.388] | – | – | – | – | – | – | – | – | – | < 1000 | – | – | > 10000 | – | – | – | – | – | – | –

From patent publication US6413517B1, “Identification of broadly reactive DR restricted epitopes” (Epimmune, Inc., priority 1997, dated 2002)
